Reference: patent US6054435A, “6-O-substituted macrolides having antibacterial activity” (priority 1999, dated 2000)
≈ marks a conversion by molar mass, not a printed value.

Assays:
Test in all cases: in vitro antibacterial activity (MIC), agar dilution
Format in all cases: cell-based
[1] = tested on: Candida albicans CCH 442; details: organism code TT; BHI agar, 35-37° C., 20 to 24 hours; unit assumed
Method: (§1) Representative compounds of the present invention were assayed in vitro for antibacterial activity as follows: Twelve petri dishes containing successive aqueous dilutions of the test compound mixed with 10 mL of sterilized Brain Heart Infusion (BHI) agar (Difco 0418-01-5) were prepared. Each plate was inoculated with 1:100 (or 1:10 for slow-growing strains, such as Micrococcus and Streptococcus) dilutions of up to 32 different microorganisms, using a Steers replicator block. […] In addition, a control plate, using BHI agar containing no test compound, was prepared and incubated at the beginning and end of each test.
(§2) An additional plate containing a compound having known susceptibility patterns for the organisms being tested and belonging to the same antibiotic class as the test compound was also prepared and incubated as a further control, as well as to provide test-to-test comparability.
(§3) After incubation, each plate was visually inspected. The minimum inhibitory concentration (MIC) was defined as the lowest concentration of drug yielding no growth, a slight haze, or sparsely isolated colonies on the inoculum spot as compared to the growth control.

[2] = tested on: Enterococcus faecium ATCC 8043; details: organism code II; BHI agar, 35-37° C., 20 to 24 hours; unit assumed
Method: as §1, §2, §3

[3] = tested on: Escherichia coli JUHL; details: organism code QQ; BHI agar, 35-37° C., 20 to 24 hours; unit assumed
Method: as §1, §2, §3

[4] = tested on: Escherichia coli SS; details: organism code RR; BHI agar, 35-37° C., 20 to 24 hours; unit assumed
Method: as §1, §2, §3

[5] = tested on: Haemophilis Influenzae DILL AMP R; details: organism code WW; BHI agar, 35-37° C., 20 to 24 hours; unit assumed
Method: as §1, §2, §3

[6] = tested on: Micrococcus luteus ATCC 4698; details: organism code PP; BHI agar, 35-37° C., 20 to 24 hours; unit assumed
Method: as §1, §2, §3

[7] = tested on: Mycobacterium smegmatis ATCC 114; details: organism code UU; BHI agar, 35-37° C., 20 to 24 hours; unit assumed
Method: as §1, §2, §3

[8] = tested on: Nocardia Asteroides ATCC9970; details: organism code VV; BHI agar, 35-37° C., 20 to 24 hours; unit assumed
Method: as §1, §2, §3

[9] = tested on: Staphylococcus aureus 1775; details: organism code GG; BHI agar, 35-37° C., 20 to 24 hours; unit assumed
Method: as §1, §2, §3

[10] = tested on: Staphylococcus aureus A-5278; details: organism code CC; BHI agar, 35-37° C., 20 to 24 hours; unit assumed
Method: as §1, §2, §3

[11] = tested on: Staphylococcus aureus A5177; details: organism code BB; BHI agar, 35-37° C., 20 to 24 hours; unit assumed
Method: as §1, §2, §3

[12] = tested on: Staphylococcus aureus ATCC 6538P; details: organism code AA; BHI agar, 35-37° C., 20 to 24 hours; unit assumed
Method: as §1, §2, §3

[13] = tested on: Staphylococcus aureus NCTC10649M; details: organism code EE; BHI agar, 35-37° C., 20 to 24 hours; unit assumed
Method: as §1, §2, §3

[14] = tested on: Staphylococcus epidermidis 3519; details: organism code HH; BHI agar, 35-37° C., 20 to 24 hours; unit assumed
Method: as §1, §2, §3

[15] = tested on: Streptococcus Pneumonia 5649; details: organism code ZZA; BHI agar, 35-37° C., 20 to 24 hours; unit assumed
Method: as §1, §2, §3

[16] = tested on: Streptococcus Pneumonia 5979; details: organism code ZZ; BHI agar, 35-37° C., 20 to 24 hours; unit assumed
Method: as §1, §2, §3

[17] = tested on: Streptococcus Pneumonia ATCC6303; details: organism code XX; BHI agar, 35-37° C., 20 to 24 hours; unit assumed
Method: as §1, §2, §3

[18] = tested on: Streptococcus Pneumonia GYR 1171; details: organism code YY; BHI agar, 35-37° C., 20 to 24 hours; unit assumed
Method: as §1, §2, §3

[19] = tested on: Streptococcus agalactiae CMX 508; details: organism code KK; BHI agar, 35-37° C., 20 to 24 hours; unit assumed
Method: as §1, §2, §3

[20] = tested on: Streptococcus bovis A-5169; details: organism code JJ; BHI agar, 35-37° C., 20 to 24 hours; unit assumed
Method: as §1, §2, §3

[21] = tested on: Streptococcus pyogenes 930; details: organism code MM; BHI agar, 35-37° C., 20 to 24 hours; unit assumed
Method: as §1, §2, §3

[22] = tested on: Streptococcus pyogenes EES61; details: organism code LL; BHI agar, 35-37° C., 20 to 24 hours; unit assumed
Method: as §1, §2, §3

[23] = tested on: Streptococcus pyogenes PIU 2548; details: organism code NN; BHI agar, 35-37° C., 20 to 24 hours; unit assumed
Method: as §1, §2, §3

[24] = tested on: Escherichia coli DC-2; details: organism code SS; BHI agar, 35-37° C., 20 to 24 hours; unit assumed
Method: as §1, §2, §3

[25] = tested on: Micrococcus luteus ATCC 9341; details: organism code OO; BHI agar, 35-37° C., 20 to 24 hours; unit assumed
Method: as §1, §2, §3

[26] = tested on: Staphylococcus aureus CMX 553; details: organism code FF; BHI agar, 35-37° C., 20 to 24 hours; unit assumed
Method: as §1, §2, §3

[27] = tested on: Staphylococcus aureus CMX 642A; details: organism code DD; BHI agar, 35-37° C., 20 to 24 hours; unit assumed
Method: as §1, §2, §3

Row | SMILES | MIC [1] [µg/mL] | MIC [2] [µg/mL] | MIC [3] [µg/mL] | MIC [4] [µg/mL] | MIC [5] [µg/mL] | MIC [6] [µg/mL] | MIC [7] [µg/mL] | MIC [8] [µg/mL] | MIC [9] [µg/mL] | MIC [10] [µg/mL] | MIC [11] [µg/mL] | MIC [12] [µg/mL] | MIC [13] [µg/mL] | MIC [14] [µg/mL] | MIC [16] [µg/mL] | MIC [17] [µg/mL] | MIC [18] [µg/mL] | MIC [19] [µg/mL] | MIC [20] [µg/mL] | MIC [21] [µg/mL] | also measured
1 | CC[C@H]1OC(=O)[C@H](C)C(=O)[C@H](C)[C@@H](O[C@@H]2O[C@H](C)C[C@H](N(C)C)[C@H]2O)[C@](C)(OCC#Cc2ccc(-c3cncc(C(=O)N(C)C)c3)s2)C[C@@H](C)C(=O)[C@H](C)[C@H]2NC(=O)O[C@@]21C [Example 11] | > 100 | 0.39 (≈ 0.45 µM) | > 100 | 0.78 (≈ 0.9 µM) | 16 (≈ 18.5 µM) | 0.2 (≈ 0.231 µM) | > 12.5 | 0.2 (≈ 0.231 µM) | > 100 | > 100 | 0.2 (≈ 0.231 µM) | 0.1 (≈ 0.115 µM) | 0.2 (≈ 0.231 µM) | 0.2 (≈ 0.231 µM) | 128 (≈ 148 µM) | 0.03 (≈ 0.0346 µM) | 0.03 (≈ 0.0346 µM) | 0.05 (≈ 0.0577 µM) | 0.01 (≈ 0.0115 µM) | > 100 | MIC [15]: 1 µg/mL (≈ 1.15 µM); MIC [22]: 0.02 µg/mL (≈ 0.0231 µM); MIC [23]: 0.39 µg/mL (≈ 0.45 µM)
2 | CC[C@H]1OC(=O)[C@H](C)C(=O)[C@H](C)[C@@H](O[C@@H]2O[C@H](C)C[C@H](N(C)C)[C@H]2O)[C@](C)(OCC#Cc2ccc(-c3cncc(C(=O)NN(C)C)c3)s2)C[C@@H](C)C(=O)[C@H](C)[C@H]2NC(=O)O[C@@]21C [Example 12] | > 100 | 0.02 (≈ 0.0227 µM) | > 100 | 0.78 (≈ 0.884 µM) | 16 (≈ 18.1 µM) | 0.39 (≈ 0.442 µM) | 6.2 (≈ 7.03 µM) | 0.2 (≈ 0.227 µM) | > 100 | > 100 | 0.39 (≈ 0.442 µM) | 0.39 (≈ 0.442 µM) | 0.39 (≈ 0.442 µM) | 0.39 (≈ 0.442 µM) | 1 (≈ 1.13 µM) | 0.03 (≈ 0.034 µM) | 0.03 (≈ 0.034 µM) | 0.05 (≈ 0.0567 µM) | 0.05 (≈ 0.0567 µM) | 50 (≈ 56.7 µM) | MIC [15]: 1 µg/mL (≈ 1.13 µM); MIC [22]: 0.05 µg/mL (≈ 0.0567 µM); MIC [23]: 0.78 µg/mL (≈ 0.884 µM)
3 | CC[C@H]1OC(=O)[C@H](C)C(=O)[C@H](C)[C@@H](O[C@@H]2O[C@H](C)C[C@H](N(C)C)[C@H]2O)[C@](C)(OC/C=C/c2cncc(-c3ccccc3)c2)C[C@@H](C)C(=O)[C@H](C)[C@H]2NC(=O)O[C@@]21C [Example 42] | > 100 | 0.05 (≈ 0.0631 µM) | 100 (≈ 126 µM) | 0.78 (≈ 0.985 µM) | 4 (≈ 5.05 µM) | 0.2 (≈ 0.253 µM) | 0.39 (≈ 0.492 µM) | 0.2 (≈ 0.253 µM) | > 100 | > 100 | 0.1 (≈ 0.126 µM) | 0.1 (≈ 0.126 µM) | 0.2 (≈ 0.253 µM) | 0.2 (≈ 0.253 µM) | 32 (≈ 40.4 µM) | 0.03 (≈ 0.0379 µM) | 0.03 (≈ 0.0379 µM) | 0.02 (≈ 0.0253 µM) | 0.02 (≈ 0.0253 µM) | 50 (≈ 63.1 µM) | MIC [24]: 50 µg/mL (≈ 63.1 µM); MIC [25]: 0.02 µg/mL (≈ 0.0253 µM); MIC [26]: 0.1 µg/mL (≈ 0.126 µM); MIC [27]: 0.2 µg/mL (≈ 0.253 µM); MIC [22]: 0.02 µg/mL (≈ 0.0253 µM); MIC [23]: 0.2 µg/mL (≈ 0.253 µM)
